Data as given in patent US4179516A, “Ethers of 3,4-dihydro-1-benzoxepin-5-one oxime to treat intestinal disorders” (Albert Rolland, S.A., priority 1973, dated 1979).
Read-outs that look alike come from different tables or passages of the source.

Tests used:
[1] = system: guinea pig ileum; test: Relaxant activity in vitro on isolated organ: anti-acetylcholine (guinea pig ileum); conditions: Tyrode solution, 37° C., acetyl choline
Method: (§1) The tests were carried out on acid addition salts of the amines of the general formula.
(§2) For tests on the isolated organ: An organ fragment of rat duodenum or guinea pig ileum is kept alive in 50 ml of oxygenated and thermostatically controlled (37° C.) Tyrode solution. The activity of the compounds is tested on the spontaneous movements of the organ and the contractions produced by the addition of solution of barium chloride or acetyl choline to the bath. The movements were recorded on a DMP 4A Roucaire physiograph.

[2] = in vivo; conditions: mouse, male Swiss C.D. mice, acid addition salts
Method: as §1
The acute toxicity was determined in male Swiss C.D. mice weighing an average of 20 grammes, after oral administration (P.O) and intravenous administration (I.V.).

[3] = system: rat duodenum; test: Relaxant activity in vitro on isolated organ: decontraction (rat duodenum); conditions: Tyrode solution, 37° C.
Method: as §1, §2

[4] = system: smooth intestinal muscle fibre (terminal part of the duodenum); test: In vivo relaxant activity on smooth intestinal muscle in the anaesthetised (chloralosed) dog, balloon in terminal duodenum; conditions: 2 mg/kg intravenously, compared with atropine
Method: as §1
For the in vivo tests: a balloon is introduced into the chloralosed animal at the level of the terminal part of the duodenum and the intestinal movements are recorded on a Beckman polygraph with the acid of Statham PM 97 gauge.

[5] = according to the authors of Collection Czechoslov. Chem. Common 37 868-886 (1972); cited from earlier work
[6] = intravenous, read-out: Toxicity in mice LD50 I.V
[7] = oral, read-out: Toxicity in mice LD50 P.O.

Row | Structure (SMILES) | Minimum active dose concentration, Anti-Acetyl-Cholire (guinea pig ileum) [1] | LD50 [2, 6] | LD50 [2, 7] | Minimum active dose concentration, Decontraction (rat duodenum) [3] | effect as regards the reduction in muscle tone and intestinal peristalsis [4] | spasmolytic action [5]
1 | COc1ccc2c(c1)C(=NOCCN(C)C)CCCO2 [Example 9, 7-methoxy-3,4-dihydro-1-benzoxepin-O-(dimethylaminoethyl)-5-one oxime] | 1.5 µg/mL | 35 mg/kg | 500 mg/kg | 0.12 µg/mL |  | 
2 | CN(C)CCON=C1CCCOc2ccc(Cl)cc21 [Example 1, 7-chloro-3,4-dihydro-1-benzoxepin-O-(dimethylaminoethyl)-5-one oxime] | 5.5 µg/mL | 32 mg/kg | 150 mg/kg | 0.06 µg/mL | comparable with or even superior to that of atropine | 
3 | Clc1ccc2c(c1)C(=NOCCN1CCCC1)CCCO2 [Example 7, 7-chloro-3,4-dihydro-1-benzoxepin-O-(1-pyrrolidinyl-ethyl)-5-one oxime] | 1.3 µg/mL | 35 mg/kg | 450 mg/kg | 1.5 µg/mL | comparable with or even superior to that of atropine | 
4 | COc1ccc2c(c1)C(=NOCCCN(C)C)CCCO2 [Example 11] | 2.0 µg/mL |  | > 1000 mg/kg | 0.3 µg/mL |  | 
5 | CCN(CC)CCON=C1CCCOc2ccc(OC)cc21 [Example 10, 7-methoxy-3,4-dihydro-1-benzoxepin-O-(diethylaminoethyl)-5-one oxime] | 0.5 µg/mL | 45 mg/kg | 450 mg/kg | 0.5 µg/mL |  | 
6 | CCN(CC)CCO/N=C1/CCCOc2ccc(Cl)cc21 [Example 2, 7-chloro-3,4-dihydro-1-benzoxepin-O-(diethylaminoethyl)-5-one oxime: isomer with the cis configuration in relation to the benzene nucleus] | 1 µg/mL | 37 mg/kg | 420 mg/kg | 0.1 µg/mL | comparable with or even superior to that of atropine | 
7 | CN1[C@@H]2CC[C@H]1C[C@@H](OC(=O)C(CO)c1ccccc1)C2 (stereo partly shown) [ATROPINE, reference compound] | 0.006 µg/mL |  |  | inactive |  | 
8 | CN(C)CCCON=C1CCCOc2ccc(Cl)cc21 [Example 8, 7-chloro-3,4-dihydro-1-benzoxepin-O-(dimethylaminopropyl)-5-one oxime] | 3.5 µg/mL | 60 mg/kg | 500 mg/kg | 0.12 µg/mL | comparable with or even superior to that of atropine | 
9 | CN(C)CCON=C1CCCOc2cc(Cl)ccc21 |  |  |  |  |  | weak spasmolytic action
10 | Clc1ccc2c(c1)C(=NOCCN1CCOCC1)CCCO2 [Example 6, 7-chloro-3,4-dihydro-1-benzoxepin-O-(morpholinoethyl)-5-one oxime] | 5.5 µg/mL | 120 mg/kg | > 1000 mg/kg | 0.15 µg/mL |  | 
11 | CCN(CC)CCON=C1CCCOc2ccc(Br)cc21 [Example 12, 7-bromo-3,4-dihydro-1-benzoxepin-O-(diethylaminoethyl)-5-one oxime] | 1 µg/mL | 40 mg/kg | 250 mg/kg | 0.1 µg/mL | comparable with or even superior to that of atropine | 
